Earlier results in patent US20240415846A1, “METHOD OF TREATING AMYOTROPHIC LATERAL SCLEROSIS AND DOSING REGIMEN FOR SAME” (Woolsey Pharmaceuticals, Inc., priority 2021, published 2024).

Details: 1-hydroxy (M3) metabolite formed in vivo; Shibuya 2001; cited from earlier work

O=S(=O)(c1cccc2c(O)nccc12)N1CCCNCC1 [M3]
half-life: about 8 hours
